Data published in US10398142B2, “Polycationic amphiphiles as antimicrobial agents” (priority 2013, dated 2019).
“And” between values parts separate entries of the source, which are not always exact repeats. Equal entries are not always repeated. Where two headings read alike, the source gives them in different places. Marks after values point to notes of the source that are not given here.

Tests used:
HA-MRSA (ATCC 33591) = experiment: Minimum inhibitory concentration (MIC), broth microdilution; format: cell-based, Staphylococcus aureus
Procedure: (§1) Different biological assays were performed. […] All cultures, with the exception of E. faecalis, were grown with shaking at 250 rpm.
(§2) Minimum inhibitory concentration (MIC) values against bacteria were measured using standard method. Compounds were serially diluted two-fold from an aqueous stock solution to yield twelve test concentrations. Overnight S. aureus, E. faecalis, E. coli, P. aeruginosa, CA-MRSA, and HA-MRSA cultures diluted to ca. 10^6 cfu/mL in Mueller-Hinton media and 100 μL were inoculated into each well of a U-bottom 96-well plate (BD Biosciences, BD351177) containing 100 μL of compound solution. Plates were incubated statically at 37° C. for 72 hours upon which time wells were evaluated visually for bacterial growth. The MIC was determined as the lowest concentration of compound resulting in no bacterial growth visible to the naked eye, based on the majority of three independent experiments. Positive and negative aqueous and media controls were conducted for each trial.

CA-MRSA (USA300-0114) = experiment: as above; format: cell-based, Staphylococcus aureus
Procedure: as §1, §2

[1] = tested on: red blood cells (defibrinated sheep blood); experiment: Hemolysis assay (Lysis20); details: Table 4; concentration at which less than 20% of red blood cells are lysed
Procedure: Hemolysis assays (Lysis20) were performed according to the procedure detailed in Peng, L., DeSousa, J., Su, Z., Novak, B. M., Nevzorov, A. A., Garland, E. R., and Melander, C., Inhibition of Acinetobacter baumannii biofilm formation on a methacrylate polymer containing a 2-aminoimidazole subunit, Chem. Comm. 2011, 47, 4896-4898. Defibrinated sheep blood was purchased from Hemostat Labs (DSB 100). Compounds representative of each class were serially diluted in sterile PBS from aqueous stock solutions and incubated with resuspended blood cells. The OD of the final suspensions were measured directly using plate reader. TritonX (1% by volume) served as a positive control (100% lysis marker) and sterile PBS served as a negative control (0% lysis marker).
Lysis20 indicates the concentration of compound (in μM) at which less than 20% of red blood cells are lysed.

[2] = tested on: S. aureus (MSSA, SH1000) biofilms; experiment: Minimum biofilm eradication concentration (MBEC), regrowth assay; format: cell-based, Staphylococcus aureus; details: for MBEC MSSA: Table 5, SH1000
From the text: (§3) A regrowth assay was used to establish the MBEC of a compound to evaluate the antibiofilm activity. See also H. Ceri, M. Olson, D. Morck, D. Storey, R. Read, A. Buret, B. Olson, Methods Enzymol. 2001, 337, 377.
(§4) Encouraged by the potency of the QACs against planktonic bacterial cells, the inventors then evaluated the efficacy of compound (12,2,12) against Staphylococcus aureus and Enterococcus faecalis biofilms. […] To both accurately evaluate the antibiofilm activity, a regrowth assay was utilized to establish the minimum biofilm eradication concentration (MBEC) of each compound.
(§5) Different biological assays were performed. For all biological assays, laboratory strains of methicillin-susceptible Staphylococcus aureus MSSA (SH1000), Enterococcus faecalis (OG1RF), Escherichia coli (MC4100), Pseudomonas aeruginosa (PAO1), community-acquired methicillin-resistant Staphylococcus aureus CA-MRSA (USA300-0114), and hospital-acquired methicillin-resistant Staphylococcus aureus HA-MRSA (ATCC 33591) were grown at 37° C. overnight from freezer stocks in 10 mL of the media indicated for each assay. All cultures, with the exception of E. faecalis, were grown with shaking at 250 rpm.
(§6) Minimum biofilm eradication concentration (MBEC) was also measured. To each well of a flat-bottomed 96-well plate (Corning 3370), 8 μL of overnight bacterial culture was brought to a volume of 200 μL with fresh media (BHI for S. aureus and MRSA, Todd Hewitt (TH) for E. faecalis). Plates were incubated statically for 24 hours at 37° C. to establish biofilms. After 24 hours, the wells were carefully emptied by inverting the plate and gently shaking. A pre-mixed solution of media and aqueous compound stock solution was added to each well and plates were incubated at 37° C. 16 hours after pre-established biofilms were treated with compound, the media from each well was removed, biofilms were washed three times with 200 μL PBS to remove planktonic cells, and biofilms were incubated overnight at 37° C. in 200 μL of fresh media to allow any viable cells to continue growing. The wells were then vigorously pipetted to resuspend the biofilm cells and the OD at 595 nm was measured using a plate reader (POLARstar Omega, BMG Labtech). Biofilms reaching a final OD of less than 0.1 were considered eradicated and the lowest concentration of antibiotic corresponded to the MBEC. Four replicates were completed for each concentration of compound as well as positive and negative controls.

E. faecalis biofilms = experiment: as above; format: cell-based, Enterococcus faecalis
From the text: as §3, §4, §5, §6

[3] = tested on: Staphylococcus aureus MSSA (SH1000); experiment: Minimum inhibitory concentration (MIC), broth microdilution; format: cell-based
Procedure: (§7) The term “minimum inhibitory concentration (MIC)” means the lowest concentration of an antimicrobial agent that will inhibit the visible growth of a microorganism after overnight incubation. MIC values against bacteria, for example, the Gram-positive Staphylococcus aureus and Enterococcus faecalis and the Gram-negative Escherichia coli and Pseudomonas aeruginosa were determined by standard methods.
(§8) With nearly three-dozen amphiphiles varying in structure and cationic nature synthesized, minimum inhibitory concentration (MIC) values against the Gram-positive Staphylococcus aureus and Enterococcus faecalis and the Gram-negative Escherichia coli and Pseudomonas aeruginosa were determined by standard methods. […] The commercially available antibacterial agent benzalkonium chloride (benzyldimethyldodecylammonium chloride, Bn,12) was tested for comparison. The broth microdilution for determining MIC values was performed as previously reported.
as §1, §2

[4] = tested on: Enterococcus faecalis (OG1RF); experiment: as above; format: cell-based; details: read-out: MIC E. faecalis
Procedure: as §7, §8, §1, §2

[5] = tested on: Escherichia coli (MC4100); experiment: as above; format: cell-based; details: read-out: MIC E. coli
Procedure: as §7, §8, §1, §2

[6] = tested on: Pseudomonas aeruginosa (PAO1); experiment: as above; format: cell-based; details: read-out: MIC P. aeruginosa
Procedure: as §7, §8, §1, §2

[7] = tested on: CA-MRSA (USA300-0114) biofilms; experiment: Minimum biofilm eradication concentration (MBEC), regrowth assay; format: cell-based, Staphylococcus aureus; details: for MBEC CA-MRSA: Table 5, USA300-0114
Procedure: as §3, §5, §6

[8] = Table 4, ATCC 33591, read-out: MIC HA-MRSA
[9] = Table 4, USA300-0114, read-out: MIC CA-MRSA
[10] = Table 3, read-out: MIC S. aureus
[11] = Table 4, SH1000, read-out: MIC MSSA
[12] = table for compound (12,3,11-SH,3,12)
[13] = Table 2, pre-established biofilm, ± values varied between 50 and 100 μM for the six trials
[14] = Table 1, read-out: MIC S. aureus

Compound	MIC (HA-MRSA (ATCC 33591); [8])	MIC (CA-MRSA (USA300-0114); [9])	Lysis20 [1]	MBEC MSSA [2]	MBEC E. faecalis (E. faecalis biofilms; Table 5)	MIC [3, 10]	MIC [3, 11]	MIC ([4]; Table 3)	MIC ([5]; Table 3)	MIC ([6]; Table 3)	MBEC CA-MRSA [7]	other results
CCCCCCCCCCCC[N+](C)(C)CCC[N+](C)(CCC[N+](C)(C)CCCCCCCCCCCC)Cc1ccc(CCCCCCCC)cc1.[Br-].[Br-].[Br-] [12,3,Bn-8,3,12]	1 µM	2 µM	8 µM	200 µM	200 µM	1 µM	2 µM	1 µM	1 µM	4 µM	>200 µM	–
CCCCCCCCCCCC[N+](C)(C)CC[CH-][N+](C)(CCCCCCCCCCCS)CCC[N+](C)(C)CCCCCCCCCCCC (centres unmarked) [12,3,11-SH,3,12]	–	–	16 µM	200 µM	>200 µM	–	–	–	–	–	>200 µM	MIC (HA-MRSA (ATCC 33591); Staphylococcus aureus, Table 4, ATCC 33591, read-out: MIC HA-MRSA): 2 µM; MIC (HA-MRSA (ATCC 33591); Staphylococcus aureus, table for compound (12,3,11-SH,3,12), read-out: MIC ATCC 33591): 2 µM; MIC (CA-MRSA (USA300-0114); Staphylococcus aureus, Table 4, USA300-0114, read-out: MIC CA-MRSA): 2 µM; MIC (CA-MRSA (USA300-0114); Staphylococcus aureus, table for compound (12,3,11-SH,3,12), read-out: MIC USA300-0114): 2 µM; MBEC S. aureus [2, 12]: 200 µM; MBEC E. faecalis (E. faecalis biofilms; [12]): >200 µM; MIC ([3]; Staphylococcus aureus, MSSA, Table 4, SH1000, read-out: MIC MSSA): 2 µM; MIC ([3]; Staphylococcus aureus, MSSA, table for compound (12,3,11-SH,3,12), read-out: MIC S. aureus): 2 µM; MIC ([4]; Enterococcus faecalis, table for compound (12,3,11-SH,3,12)): 2 µM; MIC ([5]; Escherichia coli, table for compound (12,3,11-SH,3,12)): 2 µM; MIC ([6]; Pseudomonas aeruginosa, PAO1, table for compound (12,3,11-SH,3,12)): 8 µM; MBEC USA300-0114 [7, 12]: >200 µM
CCCCCCCCCCCC[N+](C)(C)CC[N+](C)(C)CCCCCCCCCCCC [12,2,12]	0.5 µM	0.5 µM	8 µM	75 ± 25 µM	50 µM	–	1 µM	–	–	–	200 µM	MBEC S. aureus [2, 13]: 75 μM and 75 ± 25^a μM; MBEC E. faecalis (E. faecalis biofilms; [13]): 75 μM and 75 ± 25^a μM; MIC [3, 14]: 1 µM; MIC ([4]; Table 1): 1 µM; MIC ([5]; Table 1): 2 µM; MIC ([6]; Table 1): 4 µM
CCCCCCCCCCCC[N+](C)(C)CCC[N+](C)(CCC[N+](C)(C)CCCCCCCCCCCC)Cc1ccccc1.[Br-].[Br-].[Br-] [12,3,Bn,3,12]	1 µM	1 µM	8 µM	100 µM	100 µM	1 µM	2 µM	1 µM	1 µM	2 µM	200 µM	–
CCCCCCCCCCCC[N+](C)(C)CCC[N+](C)(CCCCCCCCCCCC)CCC[N+](C)(C)CCCCCCCCCCCC.[Br-].[Br-].[Br-] [12,3,12,3,12]	1 µM	1 µM	4 µM	100 µM	200 µM	0.5 µM	0.5 µM	1 µM	1 µM	4 µM	>200 µM	–
CCCCCCCCCCCC[N+](C)(C)CCCCC[N+](C)(C)CCCCCCCCCCCC.[Br-].[Br-] [12,5,12]	0.5 µM	1 µM	8 µM	50 µM	100 µM	2 µM	2 µM	1 µM	1 µM	2 µM	100 µM	MBEC S. aureus [2, 13]: 75 ± 25^a μM; MBEC E. faecalis (E. faecalis biofilms; [13]): 75 ± 25^a μM; MIC [3, 14]: 1 µM; MIC ([4]; Table 1): 1 µM; MIC ([5]; Table 1): 1 µM; MIC ([6]; Table 1): 4 µM
CCCCCCCCCCCC[N+](C)(C)CCC[N+](C)(CCCC)CCC[N+](C)(C)CCCCCCCCCCCC.[Br-].[Br-].[Br-] [12,3,4,3,12]	0.5 µM	0.5 µM	8 µM	75 ± 25 µM	50 µM	1 µM	1 µM	1 µM	1 µM	2 µM	75 ± 25 µM	–
C=CC[N+](C)(CC[N+](C)(C)CCCCCCCCCCCC)CC[N+](C)(C)CCCCCCCCCCCC.[Br-].[Br-].[Br-] [12,2,3A,2,12]	1 µM	1 µM	2 µM	50 µM	75 ± 25 µM	2 µM	2 µM	2 µM	2 µM	4 µM	100 µM	–
